For the assay, the system named is PbrACO2. The following applies: citrate to isocitrate conversion; recombinant His-PbrACO2.

As usually defined, the Km is the substrate concentration at which the rate is half of its maximum. Take `O=C(O)CC(O)(CC(=O)O)C(=O)O` [citrate]: the Michaelis-Menten constant (Km) is 630 µM.
